Holding throughout (test): NCI anticancer screen, dose series, 48 h
Experiment [1] concerns DU-145.
The subject of experiment [2] is TK-10.
Experiment [3] deals with 786-0.
The subject of experiment [4] is K562.
Experiment [5] has as its system COLO 205.
Experiment [6] deals with HCC 2998.
In experiment [7] the test system is SK-OV-3.
For experiment [8], the system named is BT-549.
For experiment [9], the system named is RPMI-8226.
Experiment [10] relates to OVCAR-8.
In experiment [11] the test system is UACC-257.
Experiment [12] deals with NCI-H522.
Experiment [13] concerns UACC-62.
Experiment [14] deals with OVCAR-4.
Experiment [15] relates to HOP-92.
Experiment [16] has as its system MDA-N.
Experiment [17] concerns HL-60.
For experiment [18], the system named is SF-268.
In experiment [19] the test system is Hs-578T.

The values that follow come from ChEMBL document CHEMBL1201862, “PubChem BioAssay data set” (2004).

Molecules are shown by their SMILES.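 Cultured in 96-well plates, cells were exposed to test compound for 48 hours across five concentrations. The concentration for 50% growth inhibition is given as GI50.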 Active and inactive are the calls of the source. No stated cut-off is given here; in the data, active = GI50 up to about 1.1 µM and inactive = higher.

Turning to `COC1CCC(OC2CC(C3(C)CCC4(CC(O)C(C)C(C(C)/C=C(\C)C(=O)C(C)CC(C)C(=O)O)O4)O3)OC3(OC(C4OC(O)(CO)C(C)CC4C)CC3C)C2C)OC1C` (stereo not given), the GI50 is < 0.0501 µM (active) in experiment [1]; 0.646 µM (active) in [2]; < 0.0341 µM (active) in [3]; < 0.0155 µM (active) in experiment [4]; < 0.0154 µM (active) in experiment [5]; < 0.0247 µM (active) in [6]. The GI50 in experiment [7] was 0.528 µM (active); in experiment [8], < 0.0324 µM (active); in [9], < 0.01 µM (active); in experiment [10] it was < 0.0368 µM (active); in experiment [11], < 0.0199 µM (active); in [12] it was < 0.01 µM (active). Also, the GI50 was 0.132 µM (active) in [13]; 0.337 µM (active) in experiment [14]; 0.482 µM (active) in [15]; 0.0811 µM (active) in [16]; < 0.01 µM (active) in [17].
In the case of `C[C@H](C1CC2(C)OC2(C)C(=O)O1)[C@H]1CC[C@H]2[C@@H]3[C@@H]4O[C@@H]4[C@@]4(O)CC=CC(=O)[C@]4(C)[C@H]3CC[C@]12C` (stereo not given in full), the GI50 in experiment [1] was 16.9 µM (inactive); in experiment [2], > 50 µM (inactive); in experiment [3], > 50 µM (inactive); in experiment [4], > 50 µM (inactive); in experiment [5], > 50 µM (inactive); in experiment [6] it was > 50 µM (inactive). Also, the GI50 in [7], in [18], in experiment [8], in experiment [9], in experiment [10] and in [11] was > 50 µM (inactive) each time. Besides, the GI50 in [12] was 36.6 µM (inactive); in experiment [13], > 50 µM (inactive); in [14] it was > 50 µM (inactive); in experiment [15] it was > 50 µM (inactive); in [16] it was > 50 µM (inactive); in experiment [17], > 50 µM (inactive).
Turning to `O=C(Cc1ccc([N+](=O)[O-])cc1)OCC#CCOC(=O)Cc1ccc([N+](=O)[O-])cc1`, the GI50 in experiment [2], in experiment [3], in [4], in experiment [7], in [18] and in experiment [8] was > 10 µM (inactive) throughout. Besides, the GI50 in experiment [10], in experiment [11], in [12], in experiment [13], in experiment [14] and in [15] was > 10 µM (inactive) in each case. The GI50 in experiment [16], in [19] and in [17] was > 10 µM (inactive) each time.
Consider `Cc1ccc(S(=O)(=O)Nn2c(O)c(C#N)c(-c3ccc(N(C)C)cc3)c(C#N)c2=O)cc1`, for which the GI50 in [2] is > 50 µM (inactive); in experiment [3], > 50 µM (inactive); in experiment [4], > 50 µM (inactive); in [5], > 50 µM (inactive); in experiment [6], > 50 µM (inactive); in experiment [7] it was 0.142 µM (active). For the same compound, the GI50 is > 50 µM (inactive) in experiment [18]; > 50 µM (inactive) in experiment [8]; 9.75 µM (inactive) in [9]; > 50 µM (inactive) in experiment [10]; > 50 µM (inactive) in [11]; > 50 µM (inactive) in experiment [12]. The GI50 in experiment [13] is 19.8 µM (inactive); in experiment [14], > 50 µM (inactive); in experiment [15], > 50 µM (inactive); in experiment [16], > 50 µM (inactive); in [19] it was > 50 µM (inactive); in [17] it was 28.9 µM (inactive).
As to `NC1=NC2(COC(c3ccccc3)(c3ccccc3)c3ccccc3)OC(COC(c3ccccc3)(c3ccccc3)c3ccccc3)C(O)C2O1` (stereo not given), the GI50 is > 100 µM (inactive) in experiment [1]; 18.9 µM (inactive) in [2]; > 100 µM (inactive) in experiment [3]; 21.8 µM (inactive) in experiment [4]; 67.1 µM (inactive) in experiment [5]; > 100 µM (inactive) in experiment [7]. Moreover, the GI50 is 41.3 µM (inactive) in [8]; 16.6 µM (inactive) in experiment [9]; 5.98 µM (inactive) in experiment [10]; 51.2 µM (inactive) in experiment [11]; 52.5 µM (inactive) in experiment [12]; 27.6 µM (inactive) in experiment [13]. Besides, the GI50 was 15.2 µM (inactive) in experiment [15], 85.1 µM (inactive) in [16], 0.258 µM (active) in experiment [19] and 8.59 µM (inactive) in experiment [17].
For the compound `CCOC(=O)C1(CC(=O)O)CCCC1=O` (stereo not given), the GI50 in experiment [1], in experiment [2], in experiment [3], in [4], in experiment [5] and in experiment [7] was > 100 µM (inactive) in each case. The GI50 in experiment [18], in experiment [8], in experiment [9], in experiment [10], in experiment [11] and in experiment [12] was > 100 µM (inactive) in each case. Also, the GI50 in [13], in experiment [14], in [15], in [16], in [19] and in experiment [17] was > 100 µM (inactive) each time.
On to `O=C(c1ccccc1Cl)n1oc2ccccc2c1=O`, for which the GI50 in [1] is > 100 µM (inactive); in experiment [2], > 100 µM (inactive); in [3], 77.1 µM (inactive); in [4] it was 7.62 µM (inactive); in [5], 35.7 µM (inactive); in experiment [7] it was > 100 µM (inactive). Further, the GI50 is > 100 µM (inactive) in experiment [18]; 84.5 µM (inactive) in [8]; 28.1 µM (inactive) in experiment [9]; > 100 µM (inactive) in experiment [10]; 86.7 µM (inactive) in experiment [11]; 13.8 µM (inactive) in experiment [12]. Further, the GI50 was > 100 µM (inactive) in experiment [13]; > 100 µM (inactive) in experiment [14]; 25.2 µM (inactive) in experiment [15]; > 100 µM (inactive) in [16]; > 100 µM (inactive) in experiment [19]; 18 µM (inactive) in experiment [17].
As to `Cc1ccc2oc3c(c(Br)c(Br)n3C)c(=O)c2c1`, the GI50 is 78.9 µM (inactive) in [1]; 19 µM (inactive) in [2]; 16.7 µM (inactive) in experiment [3]; > 100 µM (inactive) in [4]; > 100 µM (inactive) in experiment [5]; 29.4 µM (inactive) in experiment [18]. Moreover, the GI50 was > 100 µM (inactive) in experiment [8]; > 100 µM (inactive) in experiment [9]; 17.4 µM (inactive) in experiment [10]; 65.5 µM (inactive) in experiment [11]; 46.2 µM (inactive) in experiment [12]; 19.6 µM (inactive) in experiment [13]. The GI50 in [14] was 51.5 µM (inactive); in experiment [15], 18.1 µM (inactive); in experiment [19], 18.5 µM (inactive); in experiment [17] it was > 100 µM (inactive).
As for `COc1nc2c(c(=O)n1C)N[C@H]1[C@H](OC(C)=O)[C@@H](OC(C)=O)CO[C@H]1N2`, the GI50 in experiment [1], in experiment [2], in experiment [3], in [4], in [5] and in experiment [7] was > 100 µM (inactive) in each case. The GI50 in experiment [18], in experiment [8], in [9], in experiment [10], in [11] and in experiment [12] was > 100 µM (inactive) in each case. Also, the GI50 in experiment [13], in experiment [14], in [15], in experiment [16], in experiment [19] and in experiment [17] was > 100 µM (inactive) throughout.
With `CC(=O)NC1C(OCC(=O)NC(C)C(=O)NC(CCC(=O)NCCCCCNc2ccc([N+](=O)[O-])c3[nH]c4ccccc4c(=O)c23)C(N)=O)C(O)C(CO)OC1(C)OCc1ccccc1` (stereo not given), the GI50 is > 50 µM (inactive) in experiment [1]; 24 µM (inactive) in experiment [2]; 13 µM (inactive) in experiment [3]; 4.5 µM (inactive) in experiment [4]; > 50 µM (inactive) in experiment [5]; > 50 µM (inactive) in experiment [6]. The GI50 in [7] was 39.1 µM (inactive); in experiment [18], 14.5 µM (inactive); in [8], > 50 µM (inactive); in experiment [9] it was 0.005 µM (active); in experiment [10], > 50 µM (inactive); in experiment [11], > 50 µM (inactive). Besides, the GI50 in [12] is > 50 µM (inactive); in experiment [13] it was > 50 µM (inactive); in [14], > 50 µM (inactive); in experiment [16], > 50 µM (inactive); in experiment [19], 19.5 µM (inactive).
As to `Cc1ccc(/N=C2/S/C(=C3/CCC=C3N3CCOCC3)N(c3ccc(Cl)cc3)/C2=N/c2ccc(C)cc2)cc1`, the GI50 in [2], in [3], in [4], in experiment [5], in [6] and in experiment [8] was > 100 µM (inactive) in each case. The GI50 in experiment [9], in [10], in experiment [11], in experiment [13], in [15] and in experiment [16] was > 100 µM (inactive) throughout. Further, the GI50 in [19] and in [17] was > 100 µM (inactive) in each case.
